According to patent US7531554B2, “4-oxoquinoline compound and use thereof as HIV integrase inhibitor” (Japan Tobacco Inc., priority 2004, dated 2009):
Counter-ions that a name gives are not always drawn.

System: not given
Assay: not given
Settings: not given
Compound `O=C(O)c1cn(CCO)c2ccc(Cc3cccc(Cl)c3Cl)cc2c1=O` has a melting point of 247 to 249 °C.

Molecular target: T1, HIV integrase (Human immunodeficiency virus type 1 group M subtype B, UniProt P12497, F1332H)
T1 construct: HIV integrase full length gene (J. Virol., 67, 425-437 (1993)) in which phenylalanine at codon 185 was substituted by histidine; made in house; host or cells: Escherichia coli BL21(DE3)
Assay: Determination of enzyme (HIV integrase) inhibitory activity
Format: biochemical
Settings: recombinant integrase protein (F185H), donor DNA/target DNA, absorbance at 450 nm
Method in brief: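 Full-length HIV integrase bearing F185H mutation, E. coli-expressed and purified, preincubated with compound on plate-bound biotinylated donor DNA for 60 min at 37 °C; digoxigenin-labelled target DNA then added for 10 min. Strand transfer detected by peroxidase anti-digoxigenin ELISA at 450 nm; IC50 from inhibition versus no-compound and no-enzyme controls.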
Compound `COc1cc2c(cc1Cc1cccc(Cl)c1F)c(=O)c(C(=O)O)cn2[C@H](CO)[C@@H](C)OC` [Example 2-11, 6-(3-chloro-2-fluorobenzyl)-1-((1R,2R)-1-(hydroxymethyl)-2-methoxypropyl)-7-methoxy-4-oxo-1,4-dihydroquinoline-3-carboxylic acid] has an IC50 of 5 nM.
Compound `CC(C)[C@@H](CO)n1cc(C(=O)O)c(=O)c2cc(Cc3cccc(Cl)c3F)c(OCCCO)cc21` [Example 7-4, 6-(3-chloro-2-fluorobenzyl)-1-((1S)-1-(hydroxymethyl)-2-methylpropyl)-7-(3-hydroxypropoxy)-4-oxo-1,4-dihydroquinoline-3-carboxylic acid] has an IC50 of 3.6 nM.
Compound `CC(C)[C@@H](CO)n1cc(C(=O)O)c(=O)c2cc(Cc3cccc(Cl)c3F)c(N3CCN[C@@H](C)C3)cc21` [Example 4-30, 6-(3-chloro-2-fluorobenzyl)-1-((1S)-1-(hydroxymethyl)-2-methylpropyl)-7-((3S)-3-methylpiperazin-1-yl)-4-oxo-1,4-dihydroquinoline-3-carboxylic acid] has an IC50 of 6.1 nM.
Compound `CC(C)[C@@H](CO)n1cc(C(=O)O)c(=O)c2cc(Cc3cccc(Cl)c3F)c(O[C@@H]3CCN(C)C3)cc21` [Example 4-55, 6-(3-chloro-2-fluorobenzyl)-1-((1S)-1-(hydroxymethyl)-2-methylpropyl)-7-((3R)-1-methylpyrrolidin-3-yloxy)-4-oxo-1,4-dihydroquinoline-3-carboxylic acid trifluoroacetate] has an IC50 of 7.6 nM.
`CC(C)[C@@H](CO)n1cc(C(=O)O)c(=O)c2cc(Cc3cccc(Cl)c3F)c(OCc3ccc(C(=O)O)cc3)cc21` [Example 4-57, 7-(4-carboxybenzyloxy)-6-(3-chloro-2-fluorobenzyl)-1-((1S)-1-(hydroxymethyl)-2-methylpropyl)-4-oxo-1,4-dihydroquinoline-3-carboxylic acid] showed an IC50 of 3.8 nM.
With `COc1cc2c(cc1Cc1c(O)ccc(Cl)c1F)c(=O)c(C(=O)O)cn2[C@H](CO)C(C)C` [Example 1-3, 6-(3-chloro-2-fluoro-6-hydroxybenzyl)-1-((1S)-1-(hydroxymethyl)-2-methylpropyl)-7-methoxy-4-oxo-1,4-dihydroquinoline-3-carboxylic acid] the IC50 was 7.8 nM.
In the case of `CC(C)[C@@H](CO)n1cc(C(=O)O)c(=O)c2cc(Cc3cccc(Cl)c3F)c(O[C@H]3CCOC3)cc21` [Example 4-47, 6-(3-chloro-2-fluorobenzyl)-1-((1S)-1-(hydroxymethyl)-2-methylpropyl)-4-oxo-7-((3S)-tetrahydrofuran-3-yloxy)-1,4-dihydroquinoline-3-carboxylic acid], the IC50 is reported as 6.6 nM.
In the case of `CC(C)[C@@H](CO)n1cc(C(=O)O)c(=O)c2cc(Cc3cccc(Cl)c3F)c(OCc3ccncc3)cc21` [Example 4-60, 6-(3-chloro-2-fluorobenzyl)-1-((1S)-1-(hydroxymethyl)-2-methylpropyl)-4-oxo-7-(pyridin-4-ylmethoxy)-1,4-dihydroquinoline-3-carboxylic acid], the IC50 is reported as 4.3 nM.
With `COCCOc1cc2c(cc1Cc1cccc(Cl)c1F)c(=O)c(C(=O)O)cn2[C@H](CO)C(C)C` [Example 4-1, 6-(3-chloro-2-fluorobenzyl)-1-((1S)-1-(hydroxymethyl)-2-methylpropyl)-7-(2-methoxyethoxy)-4-oxo-1,4-dihydroquinoline-3-carboxylic acid] the IC50 was 4.4 nM.
With `CCOC(=O)N1CCC(Nc2cc3c(cc2Cc2cccc(Cl)c2F)c(=O)c(C(=O)O)cn3[C@H](CO)C(C)C)CC1` [Example 4-40, 6-(3-chloro-2-fluorobenzyl)-7-(1-(ethoxycarbonyl)piperidin-4-ylamino)-1-((1S)-1-(hydroxymethyl)-2-methylpropyl)-4-oxo-1,4-dihydroquinoline-3-carboxylic acid] the IC50 was 6.8 nM.
`CC(C)[C@@H](CO)n1cc(C(=O)O)c(=O)c2cc(Cc3cccc(Cl)c3F)c(OCCN3CCCC3)cc21` [Example 4-17, 6-(3-chloro-2-fluorobenzyl)-1-((1S)-1-(hydroxymethyl)-2-methylpropyl)-4-oxo-7-(2-(pyrrolidin-1-yl)ethoxy)-1,4-dihydroquinoline-3-carboxylic acid] gave an IC50 of 11 nM.
Work on `CC(C)[C@@H](CO)n1cc(C(=O)O)c(=O)c2cc(Cc3cccc(Cl)c3F)c(N3CC[C@H](O)C3)cc21` [Example 4-24, 6-(3-chloro-2-fluorobenzyl)-1-((1S)-1-(hydroxymethyl)-2-methylpropyl)-7-((3S)-3-hydroxypyrrolidin-1-yl)-4-oxo-1,4-dihydroquinoline-3-carboxylic acid] yielded an IC50 of 12 nM.
`CC(C)[C@@H](CO)n1cc(C(=O)O)c(=O)c2cc(Cc3cccc(Cl)c3F)c(OCCCN(C)C)cc21` [Example 4-6, 6-(3-chloro-2-fluorobenzyl)-7-(3-(dimethylamino)propoxy)-1-((1S)-1-(hydroxymethyl)-2-methylpropyl)-4-oxo-1,4-dihydroquinoline-3-carboxylic acid] gave an IC50 of 6.3 nM.
`CC(C)[C@@H](CO)n1cc(C(=O)O)c(=O)c2cc(Cc3cccc(Cl)c3F)c(OCS(N)(=O)=O)cc21` [Example 4-52, 7-((aminosulfonyl)methoxy)-6-(3-chloro-2-fluorobenzyl)-1-((1S)-1-(hydroxymethyl)-2-methylpropyl)-4-oxo-1,4-dihydroquinoline-3-carboxylic acid] gave an IC50 of 6.6 nM.
`CC(C)[C@@H](CO)n1cc(C(=O)O)c(=O)c2cc(Cc3cccc(Cl)c3F)c(OC3CCN(C)CC3)cc21` [Example 4-14, 6-(3-chloro-2-fluorobenzyl)-1-((1S)-1-(hydroxymethyl)-2-methylpropyl)-7-(1-methylpiperidin-4-yloxy)-4-oxo-1,4-dihydroquinoline-3-carboxylic acid] showed an IC50 of 5.4 nM.
With `CC(C)[C@@H](CO)n1cc(C(=O)O)c(=O)c2cc(Cc3cccc(Cl)c3F)c(OCc3ccccc3)cc21` [Example 4-43, 7-benzyloxy-6-(3-chloro-2-fluorobenzyl)-1-((1S)-1-(hydroxymethyl)-2-methylpropyl)-4-oxo-1,4-dihydroquinoline-3-carboxylic acid] the IC50 was 6.4 nM.
`CC(C)[C@@H](CO)n1cc(C(=O)O)c(=O)c2cc(Cc3cccc(Cl)c3F)c(OCCN3CCNCC3)cc21` [Example 4-33, 6-(3-chloro-2-fluorobenzyl)-1-((1S)-1-(hydroxymethyl)-2-methylpropyl)-4-oxo-7-(2-(piperazin-1-yl)ethoxy)-1,4-dihydroquinoline-3-carboxylic acid dihydrochloride] showed an IC50 of 5.7 nM.
For `COCCCOc1cc2c(cc1Cc1cccc(Cl)c1F)c(=O)c(C(=O)O)cn2[C@H](CO)C(C)C` [Example 4-8, 6-(3-chloro-2-fluorobenzyl)-1-((1S)-1-(hydroxymethyl)-2-methylpropyl)-7-(3-methoxypropoxy)-4-oxo-1,4-dihydroquinoline-3-carboxylic acid], the IC50 was 4.7 nM.
`CS(=O)(=O)CC[C@@H](CO)n1cc(C(=O)O)c(=O)c2cc(Cc3cccc(Cl)c3F)ccc21` [Example 2-17, 6-(3-chloro-2-fluorobenzyl)-1-((1S)-1-(hydroxymethyl)-3-mesylpropyl)-4-oxo-1,4-dihydroquinoline-3-carboxylic acid] showed an IC50 of 14 nM.
Compound `COc1cc2c(cc1Cc1ccc(O)c(Cl)c1F)c(=O)c(C(=O)O)cn2[C@H](CO)C(C)C` [Example 1-4, 6-(3-chloro-2-fluoro-4-hydroxybenzyl)-1-((1S)-1-(hydroxymethyl)-2-methylpropyl)-7-methoxy-4-oxo-1,4-dihydroquinoline-3-carboxylic acid] has an IC50 of 25 nM.
Compound `CC(C)[C@@H](CO)n1cc(C(=O)O)c(=O)c2cc(Cc3cccc(Cl)c3F)c(OCc3ccc(C#N)cc3)cc21` [Example 4-56, 6-(3-chloro-2-fluorobenzyl)-7-(4-cyanobenzyloxy)-1-((1S)-1-(hydroxymethyl)-2-methylpropyl)-4-oxo-1,4-dihydroquinoline-3-carboxylic acid] has an IC50 of 5 nM.
